Source: paper PMC3056319 (Journal of medicinal chemistry, 2011)
Where two headings read alike, the source gives them in different places.

What was measured:
[1] = test system: P. falciparum multidrug resistant C235 strain (Thailand); experiment: microbe, parasite or virus in culture; type: cell-based
[2] = test system: P. falciparum Indochina W2 clone; experiment: microbe, parasite or virus in culture; type: cell-based
[3] = test system: P. falciparum African D6 clone; experiment: microbe, parasite or virus in culture; type: cell-based; conditions: Plasmodium falciparum, D6, read-out: Antimalarial activity IC50, D6
recombinant BoNT/A LC [4] = target: T1, recombinant BoNT/A LC (Clostridium botulinum, UniProt P0DPI0); conditions: cited from earlier work
recombinant BoNT/A LC [5] = target: T1, recombinant BoNT/A LC; type: biochemical, Closteridium botulinum
EBOV = conditions: cited from earlier work
[6] = test system: RAW 264.7 (rat macrophage) cell line; type: cell-based
[7] = test system: P. berghei (ANKA strain) sporozoites; design: species or system ICR mice (Mus musculus); conditions: mouse, in vivo
Vero76 cells = conditions: African green monkey
P. berghei (P Line) = conditions: mouse
[8] = test system: Recombinant Zaire Ebola virus (EBOV-eGFP); experiment: microbe, parasite or virus in culture; type: cell-based; conditions: read-out: EBOV inhibition IC50

T1 sequence (P0DPI0 2-448 limits assumed): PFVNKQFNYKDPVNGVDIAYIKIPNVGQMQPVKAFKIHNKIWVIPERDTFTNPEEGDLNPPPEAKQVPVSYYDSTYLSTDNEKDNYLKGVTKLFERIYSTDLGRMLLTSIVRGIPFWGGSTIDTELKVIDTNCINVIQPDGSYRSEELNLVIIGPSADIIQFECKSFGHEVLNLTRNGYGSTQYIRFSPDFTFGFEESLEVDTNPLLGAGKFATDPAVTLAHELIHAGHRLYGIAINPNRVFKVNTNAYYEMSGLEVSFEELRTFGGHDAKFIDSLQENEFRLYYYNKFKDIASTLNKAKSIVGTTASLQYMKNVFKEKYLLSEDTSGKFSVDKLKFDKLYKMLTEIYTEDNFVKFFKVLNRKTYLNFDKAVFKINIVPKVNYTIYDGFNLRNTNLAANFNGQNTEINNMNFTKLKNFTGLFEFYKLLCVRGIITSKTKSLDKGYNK

Compound | Selectivity index (IC50) D6 [6] | Selectivity index (IC50) W2 [6] | Selectivity index (IC90) C235 [6] | Selectivity index (IC90) D6 [6] | Selectivity index (IC90) W2 [6] | Resistance index (RI) W2/D6 [2] | Toxicity at 20 µM (Vero76 cells) [%] | cell toxicities in dose-response studies (Vero76 cells) [%] | other results
CCN(CC)CCCC(C)Nc1ccnc2cc(Cl)ccc12 (stereo not drawn) [CQ, chloroquine, reference compound] |  |  |  |  |  |  |  |  | IC50 ([1]; Plasmodium falciparum, read-out: Antimalarial activity IC50, C235): 139 nM; IC50 ([2]; Plasmodium falciparum, W2, read-out: Antimalarial activity IC50, W2): 456 nM; IC50 [3]: 12.3 nM; BoNT/A LC inhibition (recombinant BoNT/A LC [4]): weakly inhibit the BoNT/A LC
Cc1cc(NCCCN)c2ccc3c(ccc4c(NCCCN)cc(C)nc43)c2n1.Cl [Compound 7, N,N'-bis(3-aminopropyl)-3,9-dimethylquino[8,7-h]quinoline-1,7-diamine tetrahydrochloride] |  |  |  |  |  |  |  |  | type of inhibition kinetics (recombinant BoNT/A LC [5]): competitive inhibitors
Cc1cc(NCCN)c2ccc3c(ccc4c(NCCN)cc(C)nc43)c2n1.Cl [Compound 8, N,N'-bis(2-aminoethyl)-3,9-dimethylquino[8,7-h]quinoline-1,7-diamine tetrahydrochloride] |  |  |  |  |  |  |  |  | type of inhibition kinetics (recombinant BoNT/A LC [5]): competitive inhibitors
Cc1cc(NCCCN(C)C)c2ccc3c(ccc4c(NCCCN(C)C)cc(C)nc43)c2n1.Cl [Compound 9, N,N'-bis[3-(dimethylamino)propyl]-3,9-dimethylquino[8,7-h]quinoline-1,7-diamine tetrahydrochloride] |  |  |  |  |  |  |  |  | anti-EBOV efficacy in vivo (EBOV): possesses anti-EBOV efficacy in vivo with no toxicity
CCN(CC)CCNc1cc(C)nc2c1ccc1c2ccc2c(NCCN(CC)CC)cc(C)nc21.Cl [Compound 11, N,N'-bis[2-(diethylamino)ethyl]-3,9-dimethylquino[8,7-h]quinoline-1,7-diamine tetrahydrochloride] | 1555.41; 1189.46 | 2686.21; 1058.99 | 281.66; 2827.70 | 1555.41; 1189.46 | 2686.21; 1058.99 | 0.57/0.55 | <20 | < 25 | Resistance index (RI) C235/D6 [1]: 0.57/0.55; delay of parasite patency relative to control mice [7]: 1 to 2 days; delayed patency [7]: 1 days; causal prophylactic protection ([7]; po): does not provide prophylactic protection; toxicity in vivo (P. berghei (P Line); ICR, po): >60; >60; no toxicity in vivo; in vivo clinical toxicity (P. berghei (P Line)): No evidence of in vivo clinical toxicity; day of succumbing to infection (post-parasite inoculation), non-cured mice (P. berghei (P Line); in vivo): 13 to 21 days; mice cured (negative blood smear on day 31 post-infection) (P. berghei (P Line); in vivo): cured one mouse out of five tested; IC50 [8]: 5000 to 10000 nM
Cc1cc(NCCCN2CCCCC2)c2ccc3c(ccc4c(NCCCN5CCCCC5)cc(C)nc43)c2n1.Cl [Compound 14, 3,9-dimethyl-N,N'-bis(3-piperidin-1-ylpropyl)quino[8,7-h]quinoline-1,7-diamine tetrahydrochloride] |  |  |  |  |  |  | <20 | < 25 | 
Cc1cc(NCCCN2CCOCC2)c2ccc3c(ccc4c(NCCCN5CCOCC5)cc(C)nc43)c2n1.Cl [Compound 16, 3,9-dimethyl-N,N'-bis(3-morpholin-4-ylpropyl)quino[8,7-h]quinoline-1,7-diamine tetrahydrochloride] | 1430.40; 1302.12 | 3740.50; 1728.68 | 929.32; 635.31 | 1430.40; 1302.12 | 3740.50; 1728.68 | 0.38/1.54 | <20 | < 25 | Selectivity index (IC50) C235 [6]: 929.32; 635.31; IC50 ([8]; Zaire ebolavirus, Vero 76, 48 h): ~5000 nM; IC50 [8]: 2500 to 5000 nM
Cc1cc(NCCN2CCOCC2)c2ccc3c(ccc4c(NCCN5CCOCC5)cc(C)nc43)c2n1.Cl [Compound 17, 3,9-dimethyl-N,N'-bis(2-morpholin-4-ylethyl)quino[8,7-h]quinoline-1,7-diamine tetrahydrochloride] | 1715.68; 2374.36 | 1662.42; 2601.48 | 1033.94; 1815.35 | 1715.68; 2374.36 | 1662.42; 2601.48 | 1.03/1.66 |  |  | Resistance index (RI) C235/D6 [1]: 1.03/1.66; Selectivity index (IC50) C235 [6]: 1033.94; 1815.35
